Measurements as given in the supplement of paper PMC10307832.

How the values were obtained:
Test in all cases: relative viability (nuclei count vs DMSO), 5 days (fraction); higher = more cells survive
[1] = compound: CC1=C(C(=O)N2C=CSC2=N1)CCN3CCC(=C(C4=CC=CC=C4)C5=CC=C(C=C5)F)CC3 + Cc1nc(Nc2ncc(C(=O)Nc3c(C)cccc3Cl)s2)cc(N2CCN(CCO)CC2)n1 [Dasatinib] (partner 0.075 µM)
Procedure, shortened: (§1)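 Cells from lung cancer lines were seeded into 1536-well plates and, one day later, dosed by pin tool. Treatments were either a single drug or a fixed dose of an anchor drug with five library-drug doses (not always all listed) in √10 steps. After 5 days, nuclei were stained in a one-step fixation (final 0.05% Triton X-100, 1% formaldehyde, 1 ug/ml Hoechst) and counted on 4× images, and relative viability is the treated-to-vehicle nuclei ratio, as the median of duplicate plates.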

[2] = compound: CC1=C(C(=O)N2C=CSC2=N1)CCN3CCC(=C(C4=CC=CC=C4)C5=CC=C(C=C5)F)CC3 + CC(=O)c1c(C)c2cnc(Nc3ccc(N4CCNCC4)cn3)nc2n(C2CCCC2)c1=O [Palbociclib] (partner 0.5 µM)
Procedure, shortened: as §1

[3] = compound: CC1=C(C(=O)N2C=CSC2=N1)CCN3CCC(=C(C4=CC=CC=C4)C5=CC=C(C=C5)F)CC3 + CC(C)C[C@H](NC(=O)[C@H](Cc1ccccc1)NC(=O)c1cnccn1)B(O)O [Bortezomib] (partner 0.002 µM)
Procedure, shortened: as §1

[4] = compound: CC1=C(C(=O)N2C=CSC2=N1)CCN3CCC(=C(C4=CC=CC=C4)C5=CC=C(C=C5)F)CC3 + Cc1nc(NC(=O)N2CCC[C@H]2C(N)=O)sc1-c1ccnc(C(C)(C)C(F)(F)F)c1 [Alpelisib] (partner 2 µM)
Procedure, shortened: as §1

Cell Line	relative viability ([1]; first compound 0.08 µM)	relative viability ([1]; first compound 0.253 µM)	relative viability ([1]; first compound 0.8 µM)	relative viability ([1]; first compound 2.53 µM)	relative viability ([1]; first compound 8 µM)	relative viability ([2]; first compound 0.08 µM)	relative viability ([2]; first compound 0.253 µM)	relative viability ([2]; first compound 0.8 µM)	relative viability ([2]; first compound 2.53 µM)	relative viability ([2]; first compound 8 µM)	relative viability ([3]; first compound 0.08 µM)	relative viability ([3]; first compound 0.253 µM)	relative viability ([3]; first compound 0.8 µM)	relative viability ([3]; first compound 2.53 µM)	relative viability ([3]; first compound 8 µM)	relative viability ([4]; first compound 0.08 µM)	relative viability ([4]; first compound 0.253 µM)	relative viability ([4]; first compound 0.8 µM)	relative viability ([4]; first compound 2.53 µM)	relative viability ([4]; first compound 8 µM)
NCI-H838	0.295	0.27	0.258	0.31	0.282	0.207	0.213	0.268	0.207	0.191	0.591	0.581	0.654	0.824	0.696	0.964	0.979	1.02	1.32	0.773
NCI-H1793	0.363	0.328	0.415	0.467	0.233	0.212	0.311	0.272	0.345	0.318						0.642	0.654	0.663	0.886	0.553
NCI-H520	0.208	0.195	0.221	0.209	0.182	0.211	0.235	0.238	0.223	0.19	0.615	0.485	0.57	0.999	0.523	0.906	0.594	0.777	1.01	0.794
HCC-44						0.956	0.997	1.02	1.01	0.86	0.926	0.769	0.896	1.06	0.856	0.906	0.736	0.863	0.73	0.805
NCI-H2023	0.549	0.58	0.602	0.513	0.363	0.386	0.316	0.427	0.389	0.299	1.2	0.905	0.917	1.08	0.736	0.579	0.587	0.549	0.697	0.584
NCI-H2342	0.255	0.304	0.291	0.306	0.247	0.48	0.487	0.548	0.519	0.528										
NCI-H1395	0.417	0.406	0.416	0.394	0.438	0.623	0.656	0.551	0.616	0.61						1.09	1.33	1.05	0.958	1.11
NCI-H1648						0.254	0.316	0.22	0.326	0.249										
A549																0.915	0.923	0.747	0.871	0.275
EBC-1											0.57	0.64	0.513	0.437	0.529	0.812	0.861	0.789	0.97	0.643
NCI-H1563	0.502	0.531	0.485	0.5	0.5						0.928	0.957	0.852	0.827	0.722	0.82	0.909	0.879	0.885	0.779
LK-2	0.273	0.249	0.354	0.282	0.268	0.766	0.607	0.822	0.791	0.575						1.24	1.19	1.23	1.08	0.773
Calu-6											1.05	1.14	0.933	1.02	0.767	1.02	1.06	0.91	0.997	0.807
NCI-H1944	0.243	0.237	0.193	0.215	0.242	0.305	0.31	0.341	0.29	0.259						0.917	0.815	0.842	0.865	0.777
NCI-H1299											1.07	1.04	1.04	1.02	0.702	0.997	1.09	1.08	1.03	0.54
NCI-H1650	0.436	0.324	0.297	0.405	0.263	0.395	0.345	0.313	0.383	0.348	0.216	0.193	0.21	0.234	0.227					
SK-MES-1	0.383	0.273	0.27	0.334	0.369	0.299	0.288	0.294	0.336	0.305						0.881	0.944	0.835	0.87	0.554
NCI-H2170	0.516	0.472	0.65	0.669	0.496	0.396	0.405	0.36	0.37	0.344						0.753	0.771	0.844	0.836	0.76
NCI-H358	0.175	0.21	0.133	0.153	0.218	0.138	0.136	0.145	0.162	0.128						0.821	0.912	0.744	1.07	0.553
NCI-H596	0.636	0.653	0.612	0.627	0.421						1.09	1.02	0.903	0.887	0.989	0.396	0.478	0.624	0.503	0.426
ChaGo-K-1	0.598	0.635	0.59	0.639	0.547	0.919	0.92	0.989	1.05	0.649	1.24	0.989	0.761	1.34	0.94					
